Experimental data taken from US20240290636A1, “SUBSTRATE TREATING METHOD, SUBSTRATE TREATING APPARATUS, AND TREATMENT LIQUID” (SCREEN Holdings Co., Ltd., priority 2021, published 2024).

What was measured:
[1] = Vapor pressure of the sublimable substance; conditions: absolute pressure
Method: The sublimable substance has a vapor pressure of 0.1 Pa or more and 1.0 Pa or less at normal temperatures. Here, the normal temperatures include a room temperature. The normal temperatures fall within a temperature range of 5° C. or more and 35° C. or less, for example. The normal temperatures fall within a temperature range of 10° C. or more and 30° C. or less, for example. In this specification, the value of vapor pressure is indicated as absolute pressure relative to absolute vacuum.

[2] = Description: The ability of the solvent to dissolve the sublimable substance is indicated, for example, by the solubility of the sublimable substance in the solvent. Hereinafter, the solubility of the sublimable substance in the solvent is appropriately referred to as solubility Rm. The solubility Rm is a limit amount of sublimable substance that is soluble in a certain amount of solvent. As the solubility Rm increases, the ability of the solvent to dissolve the sublimable substance increases. Therefore, the solubility Rm is preferably high.
In general, the solubility Rm varies with temperature. The treatment liquid is used at normal temperatures. Therefore, the solubility Rm is preferably high at normal temperatures. The solubility Rm is preferably 150 vol % or more at normal temperatures.
For example, when the maximum volume of the sublimable substance soluble in the solvent of volume Q2c is Q1m, the solubility Rm is a ratio of the maximum volume Q1m to the volume Q2c. Specifically, the solubility Rm is defined by the following formula.

| SMILES | vapor pressure at 25° C. [1] [Pa] | solubility Rm at 25° C. [2] [vol %] | solubility Rm at normal temperatures [2] [vol %] |
| --- | --- | --- | --- |
| CC(=NO)C(C)(C)C [pinacolone oxime] | 35.3 |  |  |
| ON=C1CCCCC1 [cyclohexanone oxime] | 1.45 |  |  |
| CC(=NO)c1ccccc1 [acetophenone oxime] | 0.27 | 186 | ≥ 150 |
